Patent US7244760B2, “Methods for preparation and use of psorospermin analogs” (Board of Regents, The University of Texas System, priority 2001, dated 2007)
Entries after “also recorded” stand apart in the source; their conditions may differ. Where two headings read alike, the source gives them in different places.

Key:
various tumor cell lines = settings: cited from earlier work
[1] = biological target: topoisomerase II-DNA complex (Drosophila melanogaster, UniProt P15348); experiment: Topoisomerase II site-directed alkylation of DNA; type: biochemical; settings: in the presence of topoisomerase II
Protocol: (§1) In the absence of psorospermin, the intensity of the topoisomerase II-mediated DNA cleavage is much less at site B than at site A. As the concentration of psorospermin was increased, the topoisomerase II-mediated DNA cleavage at site A was decreased, while the cleavage at site B was enhanced. The psorospermin-induced DNA cleavage by topoisomerase II reaches a maximum of 3-fold at a 10 μM drug concentration (FIG. 4). […] On the other hand, the cleaved complex formation at site A was reduced in the presence of psorospermin, despite the 3-fold enhancement of psorospermin alkylation at site A.
(§2) Sites A and B are three base pairs apart from each other, and Drosophila topoisomerase II binds a region of approximately 23 base pairs, based on the results of a DNase I footprinting experiment (Lee et al, 1989). Therefore, it is likely that sites A and B are competing with each other for topoisomerase II binding, and the 25-fold enhancement of the psorospermin alkylation at site B dominates this competition. FIG. 5 summarizes the three possible biochemical consequences of the site-directed alkylation of DNA by psorospermin. Because psorospermin is a 7-alkyl adduct, depurination occurs slowly at room temperature over a period of several days.

topoisomerase II = topoisomerase II (Drosophila melanogaster, UniProt P15348); experiment: Topoisomerase II-mediated DNA cleavage; type: biochemical
Protocol: as §1, §2

P388 mouse leukemia = settings: cited from earlier work
[2] = system: Acute promyelocytic leukemia; experiment: Microcytoxicity assay (SRB), cell line not given; type: cell-based, human; settings: cell line cell empty; origin Acute promyelocytic leukemia
Protocol: (§3) Cells were grown in suspension in RPMI 1640 medium supplemented with 5% fetal bovine serum, 1% (v/v) penicillin (100 unit/ml), streptomycin (100 μg/ml), and 1% (v/v) L-glutamine (all from GIBCO, Grand Island, N.Y.) at 37° C. in 5% CO2, 95% air atmosphere, and were passaged once every six days. Additionally, these lines are capable of in vivo growth in SCID mice for in vivo confirmatory studies. In initial experiments, two diastereomeric pairs of (±)-psorospermin methyl ethers in a series of cell lines were evaluated.
(§4) (ii) Microcytoxicity assay. A standard 96-well microcytoxicity assay is performed by plating each cell line in a microtiter plate at 4,000-10,000 cells per well (depending on cell doubling time), six replicate wells per drug dose. All plates are incubated for 4 days at 37° C. in a humidified tissue culture incubator containing 5% CO2 in air. The endpoint determination uses sulforhodamine blue (SRB) and spectrophotometric determination of protein content of each well as reflected by SRB staining. IC50 values were calculated by linear regression analysis.

[3] = system: K562/R (daunorubicin resistant); experiment: Microcytoxicity assay (SRB), K562/R; type: cell-based, human; settings: Chronic myelogenous leukemia
Protocol: as §3, §4

A2780 = experiment: Microcytoxicity assay (SRB), A2780; type: cell-based, human; settings: Ovarian
Protocol: as §3, §4

[4] = system: HL60/AR (adriamycin resistant); experiment: Microcytoxicity assay (SRB), HL60/AR; type: cell-based, human; settings: Acute promyelocytic leukemia
Protocol: as §3, §4

PC-3 = experiment: Microcytoxicity assay (SRB), PC-3; type: cell-based, human; settings: Prostate, adenocarcinoma, mets
Protocol: as §3, §4

PC-3N = experiment: Microcytoxicity assay (SRB), PC-3N; type: cell-based, human; settings: Prostate, N-cadherin positive
Protocol: as §3, §4

MiaPaCa-2 (pancreatic) = experiment: Microcytoxicity assay (SRB), MiaPaCa-2; type: cell-based, human; settings: for In vitro cytotoxic potency: MiaPaCa-2, 4 days, SRB
Excerpt: (§5) (i) Human tumor cell lines. Human tumor cell lines representative of major forms of human cancer for use in the microcytoxicity assay include MCF7 (breast), SW480 (colon), HL-60 (promyelocytic leukemia), MiaPaCa-2 (pancreatic), U937 (histiocytic lymphoma), and 8226 (myeloma) (see Table 5). One drug resistant variant of 8226 was also included: 8226/DOX40, an mdr-1-mediated drug resistant cell line. Other matched pairs may also be added. All lines have known karyotypes that are checked at least annually for quality control.
as §3, §4

[5] = system: 8226/DOX40, an mdr-1-mediated drug resistant cell line; experiment: Microcytoxicity assay (SRB), 8226/DOX40; type: cell-based, human; settings: 4 days
Excerpt: as §5, §3
(§6) (ii) Microcytoxicity assay. A standard 96-well microcytoxicity assay is performed by plating each cell line in a microtiter plate at 4,000-10,000 cells per well (depending on cell doubling time), six replicate wells per drug dose. […] IC50 values were calculated by linear regression analysis.

[6] = system: A2780/CP70 (cisplatin resistant); experiment: Microcytoxicity assay (SRB), A2780/CP70; type: cell-based, human; settings: Ovarian
Protocol: as §3, §4

[7] = system: U937 (histiocytic lymphoma); experiment: Microcytoxicity assay (SRB), U937; type: cell-based, human; settings: 4 days
Excerpt: as §5, §3, §6

DU 145 = experiment: Microcytoxicity assay (SRB), DU 145; type: cell-based, human
Protocol: as §3, §4

MCF7 (breast) = experiment: Microcytoxicity assay (SRB), MCF7; type: cell-based, human; settings: for In vitro cytotoxic potency: 4 days, SRB
Excerpt: as §5, §3, §4

[8] = system: HL-60 (promyelocytic leukemia); experiment: Microcytoxicity assay (SRB), HL-60; type: cell-based, human
Excerpt: as §5, §3, §4

PEAZ-1 = experiment: Microcytoxicity assay (SRB), PEAZ-1; type: cell-based, human; settings: Prostate, primary
Protocol: as §3, §4

tumor cell lines = experiment: Microcytoxicity assay, all tumor cell lines tested; type: cell-based, human; settings: on average over the cell lines of Table 5
Excerpt: as §5, §3, §6

LnCAP = experiment: Microcytoxicity assay (SRB), LnCAP; type: cell-based, human; settings: Prostate, lymph node mets
Protocol: as §3, §4

SW480 (colon) = experiment: Microcytoxicity assay (SRB), SW480; type: cell-based, human; settings: 4 days
Excerpt: as §5, §3, §6

8226 (myeloma) = experiment: Microcytoxicity assay (SRB), 8226; type: cell-based, human; settings: 4 days
Excerpt: as §5, §3, §6

K562 = experiment: Microcytoxicity assay (SRB), K562; type: cell-based, human; settings: Chronic myelogenous leukemia
Protocol: as §3, §4

MCF 10A = experiment: Microcytoxicity assay (SRB), MCF 10A; type: cell-based; settings: Breast, normal mammary
Protocol: as §3, §4

HT-29 = experiment: Microcytoxicity assay (SRB), HT-29; type: cell-based, human
Protocol: as §4

topoisomerase II, sequence (P15348 whole entry): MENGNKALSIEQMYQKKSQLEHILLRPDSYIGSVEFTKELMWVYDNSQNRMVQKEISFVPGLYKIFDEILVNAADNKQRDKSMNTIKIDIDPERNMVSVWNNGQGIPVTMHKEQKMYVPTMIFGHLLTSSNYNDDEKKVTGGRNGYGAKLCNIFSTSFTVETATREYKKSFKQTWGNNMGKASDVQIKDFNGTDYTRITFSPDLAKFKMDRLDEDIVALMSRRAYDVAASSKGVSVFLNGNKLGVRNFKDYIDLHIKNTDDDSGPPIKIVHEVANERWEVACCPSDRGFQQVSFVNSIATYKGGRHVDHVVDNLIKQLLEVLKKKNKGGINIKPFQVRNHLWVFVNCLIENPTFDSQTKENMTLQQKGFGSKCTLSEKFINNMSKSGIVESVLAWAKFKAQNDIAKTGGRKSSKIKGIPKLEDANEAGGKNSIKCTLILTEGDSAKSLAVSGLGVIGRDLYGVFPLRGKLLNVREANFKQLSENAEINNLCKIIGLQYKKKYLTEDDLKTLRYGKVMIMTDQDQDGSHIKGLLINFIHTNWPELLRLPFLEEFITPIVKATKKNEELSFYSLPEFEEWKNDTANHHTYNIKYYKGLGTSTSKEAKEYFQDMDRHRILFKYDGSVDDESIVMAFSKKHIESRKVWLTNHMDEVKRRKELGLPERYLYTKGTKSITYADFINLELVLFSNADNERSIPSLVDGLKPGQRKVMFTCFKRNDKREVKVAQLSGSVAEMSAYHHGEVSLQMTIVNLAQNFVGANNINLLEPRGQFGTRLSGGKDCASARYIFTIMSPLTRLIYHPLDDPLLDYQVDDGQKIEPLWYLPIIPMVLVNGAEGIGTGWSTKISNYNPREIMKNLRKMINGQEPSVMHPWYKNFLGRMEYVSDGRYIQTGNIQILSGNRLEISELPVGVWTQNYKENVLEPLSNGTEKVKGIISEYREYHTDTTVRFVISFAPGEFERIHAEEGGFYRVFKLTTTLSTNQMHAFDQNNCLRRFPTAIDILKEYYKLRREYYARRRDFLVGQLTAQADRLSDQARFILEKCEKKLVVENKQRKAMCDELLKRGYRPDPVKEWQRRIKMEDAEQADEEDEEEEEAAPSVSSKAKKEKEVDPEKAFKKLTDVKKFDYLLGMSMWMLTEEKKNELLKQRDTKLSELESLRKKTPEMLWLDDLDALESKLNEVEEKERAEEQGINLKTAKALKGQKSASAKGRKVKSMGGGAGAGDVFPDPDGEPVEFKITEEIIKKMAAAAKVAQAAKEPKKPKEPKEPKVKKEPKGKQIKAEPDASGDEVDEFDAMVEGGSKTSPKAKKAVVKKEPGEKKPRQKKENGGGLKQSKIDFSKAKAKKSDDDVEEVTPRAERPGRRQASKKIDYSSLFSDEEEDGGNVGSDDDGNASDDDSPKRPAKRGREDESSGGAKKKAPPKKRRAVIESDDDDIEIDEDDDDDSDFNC
topoisomerase II-DNA complex, sequence (P15348 whole entry, one chain of several): as the sequence (P15348 whole entry) above

Which results are given for COc1cc2c(c3oc4c(O)cccc4c(=O)c13)C[C@H]([C@@]1(C)CO1)O2 [psorospermin]?
activity in vitro against various tumor cell lines (various tumor cell lines): significant activity; enhancement of psorospermin alkylation at site A ([1]; site A): 3 fold; enhancement of the psorospermin alkylation at site B ([1]; site B): 25 fold; topoisomerase II-mediated DNA cleavage at site A (topoisomerase II; site A, as the concentration of psorospermin was increased): decreased; psorospermin-induced DNA cleavage by topoisomerase II, maximum (topoisomerase II; site B, 10 μM drug concentration): 3 fold; activity in vivo against P388 mouse leukemia (P388 mouse leukemia): significant activity

For COc1c2c(c3oc4ccccc4c(=O)c3c1OC)CC([C@@]1(C)CO1)O2 (mixture of isomers) [Compound A, (±)-(2′R,3′R) (2′S,3′S) psorospermin methyl ether], which IC50 [2] is on record?
Its IC50 is 11 nM.

And the IC50 [3]?
The IC50 was 24 nM.

What about the IC50 (A2780) of the same molecule?
Its IC50 is 63 nM.

What about the IC50 [4] of the same molecule?
The IC50 was 12 nM.

And the IC50 (PC-3)?
Its IC50 is 280 nM.

And the IC50 (PC-3N)?
The IC50 was 130 nM.

What about the IC50 (MiaPaCa-2 (pancreatic); MIA PaCa-2, pancreas, read-out: IC50 Values) of the same molecule?
Its IC50 is 180 nM.

And the “activity in the pancreatic cell line MiaPaCa” value (MiaPaCa-2 (pancreatic); MiaPaCa)?
Its value is “remarkable activity”.

And the “In vitro cytotoxic potency” value (MiaPaCa-2 (pancreatic))?
Its value is 0.26 µg/mL.

And the “activity in MiaPaCa compared with gemcytabine” value (MiaPaCa-2 (pancreatic); MiaPaCa, versus gemcytabine)?
The value was “as good or better”.

And the “In vitro cytotoxic potency” value [5]?
Its value is 0.06 µg/mL.

What about the IC50 [6] of the same molecule?
The IC50 was 473 nM.

And the “In vitro cytotoxic potency” value [7]?
The value was 0.062 µg/mL.

And the IC50 (DU 145; DU 145, Prostate, brain mets, read-out: IC50 Values)?
Its IC50 is 304 nM.

And the “In vitro cytotoxic potency” value (MCF7 (breast))?
The value was 0.28 µg/mL.

What about the IC50 (MCF7 (breast); Breast, adenocarcinoma) of the same molecule?
Its IC50 is 610 nM.

What about the IC50 ([8]; HL60, origin printed: promyelocytic leukemia) of the same molecule?
Its IC50 is 36 nM.

And the “In vitro cytotoxic potency” value ([8]; HL-60, 4 days, SRB)?
The value was 0.026 µg/mL.

What about the IC50 (PEAZ-1) of the same molecule?
Its IC50 is 160 nM.

And the “effectiveness relative to Compound B” value (tumor cell lines)?
Its value is “more potent; also recorded: twice as effective”.

What about the IC50 (LnCAP) of the same molecule?
The IC50 was 460 nM.

What about the “In vitro cytotoxic potency” value (SW480 (colon)) of the same molecule?
The value was 0.24 µg/mL.

What about the “In vitro cytotoxic potency” value (8226 (myeloma)) of the same molecule?
The value was 0.21 µg/mL.

What about the IC50 (K562) of the same molecule?
Its IC50 is 36 nM.

And the IC50 (MCF 10A)?
The IC50 was 5350 nM.

Which IC50 (MiaPaCa-2 (pancreatic); MiaPaCa, read-out: IC50) does the source give for “(2S,3R)-psorospermin methyl ether [Compound 116]” here?
Its IC50 is 4000 nM.

What about the IC50 (HT-29) of the same molecule?
The IC50 was 7000 nM.

What about the IC50 (DU 145; DU-145, read-out: IC50) of the same molecule?
Its IC50 is 4000 nM.

For “(±)-(2′R,3′S) (2′S,3′R) psorospermin methyl ether [Compound B]”, which “In vitro cytotoxic potency” value (MiaPaCa-2 (pancreatic)) is on record?
The value was 0.48 µg/mL.

And the “In vitro cytotoxic potency” value [5]?
Its value is 0.30 µg/mL.

What about the “In vitro cytotoxic potency” value (MCF7 (breast)) of the same molecule?
Its value is 0.74 µg/mL.

And the “sensitivity of HL-60” value ([8]; HL-60, positive for c-myc and BCL-2)?
The value was “highly sensitive”.

What about the “In vitro cytotoxic potency” value (SW480 (colon)) of the same molecule?
Its value is 0.36 µg/mL.

And the “In vitro cytotoxic potency” value (8226 (myeloma))?
Its value is 0.33 µg/mL.

Which results are given for “(2R,3S)-psorospermin methyl ether [Compound 117]”?
IC50 (MiaPaCa-2 (pancreatic); MiaPaCa, read-out: IC50): 400 nM; IC50 (HT-29): 700 nM; IC50 (DU 145; DU-145, read-out: IC50): 400 nM
